Laboratory results published in patent publication US20090011418A1, “FUNCTIONAL TOLL-LIKE RECEPTORS (TLR) ON MELANOCYTES AND MELANOMA CELLS AND USES THEREOF” (JOHN WAYNE CANCER INSTITUTE, priority 2007, published 2009).

Tests used:
[1] = biological target: T1, TLR4 on the cell surface of melanoma lines (Homo sapiens, UniProt O00206+Q9Y6Y9); assay: FITC-LPS fluorescence microscopy binding; settings: 20 μg/ml FITC-LPS, 20 min, fixed cells
T1 construct: endogenous in cells; host or cells: human melanoma cell lines (fixed with paraformaldehyde); PBLs as comparison
T1 sequence (O00206 24-839): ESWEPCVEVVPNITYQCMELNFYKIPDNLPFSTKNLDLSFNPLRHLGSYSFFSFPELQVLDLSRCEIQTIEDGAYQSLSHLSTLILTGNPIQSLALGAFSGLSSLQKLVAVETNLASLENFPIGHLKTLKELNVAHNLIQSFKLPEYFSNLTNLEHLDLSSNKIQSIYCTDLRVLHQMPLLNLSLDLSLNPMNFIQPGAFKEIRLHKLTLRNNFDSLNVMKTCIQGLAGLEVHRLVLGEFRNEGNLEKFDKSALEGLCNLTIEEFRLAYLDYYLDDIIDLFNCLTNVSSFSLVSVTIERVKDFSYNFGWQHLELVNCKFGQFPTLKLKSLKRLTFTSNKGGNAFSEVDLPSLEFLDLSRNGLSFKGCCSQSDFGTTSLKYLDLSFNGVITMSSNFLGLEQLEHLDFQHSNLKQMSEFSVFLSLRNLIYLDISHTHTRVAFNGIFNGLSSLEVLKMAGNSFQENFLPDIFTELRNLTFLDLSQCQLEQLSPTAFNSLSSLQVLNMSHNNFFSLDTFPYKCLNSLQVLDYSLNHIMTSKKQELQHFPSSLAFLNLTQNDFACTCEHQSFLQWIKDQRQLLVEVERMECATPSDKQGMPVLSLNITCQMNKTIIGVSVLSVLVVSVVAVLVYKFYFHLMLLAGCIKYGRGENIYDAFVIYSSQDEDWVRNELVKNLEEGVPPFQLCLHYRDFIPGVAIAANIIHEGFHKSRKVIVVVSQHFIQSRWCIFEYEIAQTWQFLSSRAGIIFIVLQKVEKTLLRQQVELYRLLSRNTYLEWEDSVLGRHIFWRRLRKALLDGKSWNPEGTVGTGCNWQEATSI
T1 sequence (Q9Y6Y9 17-160 limits assumed): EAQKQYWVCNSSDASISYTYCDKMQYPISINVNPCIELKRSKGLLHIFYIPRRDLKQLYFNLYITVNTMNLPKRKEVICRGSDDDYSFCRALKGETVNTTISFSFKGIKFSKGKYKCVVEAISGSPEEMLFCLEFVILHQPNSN
Procedure: (§1) Cells were fixed with 4% paraformaldehyde in PBS for 10 min, and then incubated inside a 37° C. humidified atmosphere containing 5% CO2 for 20 min in RPMI 1640 medium supplemented with 10% FBS and 20 μg/ml of fluorescein isothiocyanate (FITC)-LPS (Sigma, St Louis, Mo.). After washing, cells were visualized using an Olympus IX70 fluorescence microscope. The images were recorded using an Olympus C-3030 Zoom Camedia Digital Camera.
The inventors employed FITC-LPS to assess binding to TLR4 on the cell surface of melanoma lines. PIC-FITC and zymosan-FITC were not available for assessment. […] The FITC-LPS analysis confirmed TLR4 receptor staining on the melanoma cell surface.

PBLs = assay: FITC-LPS fluorescence microscopy staining; type: binding, human; settings: 20 μg/ml FITC-LPS, 20 min, fixed cells
Procedure: as §1, with “Camera. […] The inventors employed FITC-LPS to assess binding to TLR4 on the cell surface of melanoma lines. PIC-FITC and zymosan-FITC were not available for assessment. […] The FITC-LPS analysis confirmed TLR4 receptor staining on the melanoma cell surface.” for “Camera.”

binding to melanoma cell surface (staining) [1]: direct binding of LPS to melanoma cells
Substance: fluorescein isothiocyanate (FITC)-LPS [FITC-LPS]
staining intensity of PBLs compared with melanoma cells (PBLs): stained with more intensity
